Data from ChEMBL document CHEMBL3390836, “Mannich- and LedererManasse-based analogues of the natural product S-(+)-curcuphenol as cancer proliferation and migration inhibitors” (Medchemcomm, 2012).

Columns and labels:
Assay type in all cases: functional
ACHN [1] = assay: Cytotoxicity against human ACHN cells assessed as cell growth at 10^-8 M after 48 hrs by SRB assay relative to control; conditions: read-out: Activity
HCC 2998 = assay: Cytotoxicity against human HCC2998 cells assessed as cell growth at 10^-7 M after 48 hrs by SRB assay relative to control; conditions: HCC 2998, 48 h, read-out: Activity
SK-MEL-2 = assay: Cytotoxicity against human SK-MEL-2 cells assessed as cell growth at 10^-8 M after 48 hrs by SRB assay relative to control; conditions: SK-MEL-2, 48 h, read-out: Activity
MCF7 [2] = assay: Cytotoxicity against human MCF7 cells assessed as cell growth at 10^-7 M after 48 hrs by SRB assay relative to control; conditions: MCF7, 48 h, read-out: Activity
[3] = Cytotoxicity against human UACC62 cells assessed as cell growth at 10^-4 M after 48 hrs by SRB assay relative to control; conditions: UACC-62, 48 h, read-out: Activity
NCI-H322M [4] = assay: Cytotoxicity against human NCI-H322M cells assessed as cell growth at 10^-6 M after 48 hrs by SRB assay relative to control; conditions: read-out: Activity
MDA-MB-435 [5] = assay: Cytotoxicity against human MDA-MB-435 cells assessed as cell growth at 10^-8 M after 48 hrs by SRB assay relative to control; conditions: MDA-MB-435, 48 h, read-out: Activity
[6] = Cytotoxicity against human Hs 578T cells after 48 hrs by SRB assay
[7] = Cytotoxicity against human HCT116 cells assessed as cell growth at 10^-6 M after 48 hrs by SRB assay relative to control; conditions: HCT-116, 48 h, read-out: Activity
HOP-62 [8] = assay: Cytotoxicity against human HOP62 cells after 48 hrs by SRB assay; conditions: HOP-62, 48 h
[9] = Cytotoxicity against human OVCAR3 cells assessed as cell growth at 10^-4 M after 48 hrs by SRB assay relative to control; conditions: OVCAR-3, 48 h, read-out: Activity
COLO 205 = assay: Cytotoxicity against human COLO205 cells assessed as cell growth at 10^-4 M after 48 hrs by SRB assay relative to control; conditions: COLO 205, 48 h, read-out: Activity
[10] = Cytotoxicity against human UO31 cells after 48 hrs by SRB assay; conditions: UO-31, 48 h
[11] = Cytotoxicity against human OVCAR5 cells after 48 hrs by SRB assay; conditions: OVCAR-5, 48 h; for CC50: read-out: LC50 (the source's name)
NCI-H322M [12] = assay: Cytotoxicity against human NCI-H322M cells assessed as cell growth at 10^-7 M after 48 hrs by SRB assay relative to control; conditions: read-out: Activity
MDA-MB-435 [13] = assay: Cytotoxicity against human MDA-MB-435 cells assessed as cell growth at 10^-7 M after 48 hrs by SRB assay relative to control; conditions: MDA-MB-435, 48 h, read-out: Activity
SNB-75 = assay: Cytotoxicity against human SNB75 cells assessed as cell growth at 10^-4 M after 48 hrs by SRB assay relative to control; conditions: SNB-75, 48 h, read-out: Activity
[14] = Cytotoxicity against human UO31 cells assessed as cell growth at 10^-6 M after 48 hrs by SRB assay relative to control; conditions: UO-31, 48 h, read-out: Activity
ACHN [15] = assay: Cytotoxicity against human ACHN cells assessed as cell growth at 10^-7 M after 48 hrs by SRB assay relative to control; conditions: read-out: Activity
[16] = Cytotoxicity against human Hs 578T cells assessed as cell growth at 10^-8 M after 48 hrs by SRB assay relative to control; conditions: read-out: Activity
HT-29 = assay: Cytotoxicity against human HT-29 cells assessed as cell growth at 10^-7 M after 48 hrs by SRB assay relative to control; conditions: HT-29, 48 h, read-out: Activity
[17] = Cytotoxicity against human HCT116 cells assessed as cell growth at 10^-7 M after 48 hrs by SRB assay relative to control; conditions: HCT-116, 48 h, read-out: Activity
NCI-H226 = assay: Cytotoxicity against human NCI-H226 cells assessed as cell growth at 10^-4 M after 48 hrs by SRB assay relative to control; conditions: NCI-H226, 48 h, read-out: Activity
HOP-62 [18] = assay: Cytotoxicity against human HOP62 cells assessed as cell growth at 10^-4 M after 48 hrs by SRB assay relative to control; conditions: HOP-62, 48 h, read-out: Activity
SNB-19 = assay: Cytotoxicity against human SNB19 cells assessed as cell growth at 10^-7 M after 48 hrs by SRB assay relative to control; conditions: SNB-19, 48 h, read-out: Activity
SF-295 = assay: Cytotoxicity against human SF295 cells assessed as cell growth at 10^-7 M after 48 hrs by SRB assay relative to control; conditions: SF-295, 48 h, read-out: Activity
[19] = Cytotoxicity against human HCT116 cells assessed as cell growth at 10^-4 M after 48 hrs by SRB assay relative to control; conditions: HCT-116, 48 h, read-out: Activity
NCI-H460 = assay: Cytotoxicity against human NCI-H460 cells assessed as cell growth at 10^-7 M after 48 hrs by SRB assay relative to control; conditions: NCI-H460, 48 h, read-out: Activity
[20] = Cytotoxicity against human SKOV3 cells assessed as cell growth at 10^-7 M after 48 hrs by SRB assay relative to control; conditions: SK-OV-3, 48 h, read-out: Activity
MCF7 [21] = assay: Cytotoxicity against human MCF7 cells assessed as cell growth at 10^-8 M after 48 hrs by SRB assay relative to control; conditions: MCF7, 48 h, read-out: Activity
RXF 393 = assay: Cytotoxicity against human RXF393 cells assessed as cell growth at 10^-8 M after 48 hrs by SRB assay relative to control; conditions: RXF 393, 48 h, read-out: Activity
[22] = Cytotoxicity against human SKOV3 cells assessed as cell growth at 10^-8 M after 48 hrs by SRB assay relative to control; conditions: SK-OV-3, 48 h, read-out: Activity
[23] = Cytotoxicity against human EKVX cells assessed as cell growth at 10^-7 M after 48 hrs by SRB assay relative to control; conditions: read-out: Activity
K562 = assay: Cytotoxicity against human K562 cells assessed as cell growth at 10^-7 M after 48 hrs by SRB assay relative to control; conditions: K562, 48 h, read-out: Activity
HL-60(TB) = assay: Cytotoxicity against human HL-60(TB) cells assessed as cell growth at 10^-6 M after 48 hrs by SRB assay relative to control; conditions: HL-60, 48 h, read-out: Activity
[24] = Cytotoxicity against human HCT15 cells assessed as cell growth at 10^-4 M after 48 hrs by SRB assay relative to control; conditions: HCT-15, 48 h, read-out: Activity
[25] = Cytotoxicity against human OVCAR4 cells assessed as cell growth at 10^-4 M after 48 hrs by SRB assay relative to control; conditions: OVCAR-4, 48 h, read-out: Activity

CC(C)=CCC[C@H](C)c1ccc(C)c2c1OCN(CC1CCNCC1)C2
growth at 0.01 µM (ACHN [1]): 100%
growth at 0.1 µM (HCC 2998): 105%
growth at 0.01 µM (SK-MEL-2): 108%
growth at 0.1 µM (MCF7 [2]): 97%
growth at 100 µM [3]: -92%
growth at 1 µM (NCI-H322M [4]): 108%
growth at 0.01 µM (MDA-MB-435 [5]): 100%
GI50 [6]: 13.3 µM
LC50 [6]: 67 µM
TGI [6]: 29.9 µM
growth at 1 µM [7]: 104%
GI50 (HOP-62 [8]): 14.8 µM
LC50 (HOP-62 [8]): 55.6 µM
TGI (HOP-62 [8]): 28.7 µM
growth at 100 µM [9]: -84%
growth at 100 µM (COLO 205): -89%
GI50 [10]: 12.8 µM
LC50 [10]: 58.2 µM
TGI [10]: 27.3 µM
GI50 [11]: 14.3 µM
TGI [11]: 28.8 µM
CC50 [11]: 57.7 µM
growth at 0.1 µM (NCI-H322M [12]): 99%
growth at 0.1 µM (MDA-MB-435 [13]): 96%
growth at 100 µM (SNB-75): -99%
growth at 1 µM [14]: 91%
growth at 0.1 µM (ACHN [15]): 105%
growth at 0.01 µM [16]: 98%
growth at 0.1 µM (HT-29): 112%
growth at 0.1 µM [17]: 100%
growth at 100 µM (NCI-H226): -84%
growth at 100 µM (HOP-62 [18]): -94%
growth at 0.1 µM (SNB-19): 95%
growth at 0.1 µM (SF-295): 94%
growth at 100 µM [19]: -80%
growth at 0.1 µM (NCI-H460): 106%
growth at 0.1 µM [20]: 98%
growth at 0.01 µM (MCF7 [21]): 98%
growth at 0.01 µM (RXF 393): 86%
growth at 0.01 µM [22]: 101%
growth at 0.1 µM [23]: 103%
growth at 0.1 µM (K562): 99%
growth at 1 µM (HL-60(TB)): 82%
growth at 100 µM [24]: -83%
growth at 100 µM [25]: -91%

CC(C)=CCC[C@H](C)c1ccc(C)c(CNCC2CCNCC2)c1O
growth at 0.01 µM (ACHN [1]): 96%
growth at 0.1 µM (HCC 2998): 95%
growth at 0.01 µM (SK-MEL-2): 102%
growth at 0.1 µM (MCF7 [2]): 97%
growth at 100 µM [3]: -81%
growth at 1 µM (NCI-H322M [4]): 99%
growth at 0.01 µM (MDA-MB-435 [5]): 100%
GI50 [6]: 6.53 µM
LC50 [6]: > 25 µM
TGI [6]: > 25 µM
growth at 1 µM [7]: 105%
GI50 (HOP-62 [8]): 4.12 µM
LC50 (HOP-62 [8]): 17.6 µM
TGI (HOP-62 [8]): 8.5 µM
growth at 100 µM [9]: 3%
growth at 100 µM (COLO 205): -93%
GI50 [10]: 3.58 µM
LC50 [10]: > 25 µM
TGI [10]: 12.3 µM
GI50 [11]: 9.56 µM
TGI [11]: > 25 µM
CC50 [11]: > 25 µM
growth at 0.1 µM (NCI-H322M [12]): 94%
growth at 0.1 µM (MDA-MB-435 [13]): 92%
growth at 100 µM (SNB-75): -32%
growth at 1 µM [14]: 84%
growth at 0.1 µM (ACHN [15]): 94%
growth at 0.01 µM [16]: 94%
growth at 0.1 µM (HT-29): 105%
growth at 0.1 µM [17]: 98%
growth at 100 µM (NCI-H226): 37%
growth at 100 µM (HOP-62 [18]): -74%
growth at 0.1 µM (SNB-19): 91%
growth at 0.1 µM (SF-295): 91%
growth at 100 µM [19]: -39%
growth at 0.1 µM (NCI-H460): 98%
growth at 0.1 µM [20]: 93%
growth at 0.01 µM (MCF7 [21]): 90%
growth at 0.01 µM (RXF 393): 101%
growth at 0.01 µM [22]: 99%
growth at 0.1 µM [23]: 94%
growth at 0.1 µM (K562): 99%
growth at 1 µM (HL-60(TB)): 88%
growth at 100 µM [24]: -11%
growth at 100 µM [25]: 44%

COc1ccc(CCN2COc3c([C@@H](C)CCC=C(C)C)ccc(C)c3C2)cc1OC
growth at 0.01 µM (ACHN [1]): 95%
growth at 0.1 µM (HCC 2998): 83%
growth at 0.01 µM (SK-MEL-2): 93%
growth at 0.1 µM (MCF7 [2]): 90%
growth at 100 µM [3]: -99%
growth at 1 µM (NCI-H322M [4]): 92%
growth at 0.01 µM (MDA-MB-435 [5]): 97%
GI50 [6]: 3.94 µM
LC50 [6]: 65.2 µM
TGI [6]: 17.3 µM
growth at 1 µM [7]: 97%
GI50 (HOP-62 [8]): 1.86 µM
LC50 (HOP-62 [8]): 7.05 µM
TGI (HOP-62 [8]): 36.2 µM
growth at 100 µM [9]: -94%
growth at 100 µM (COLO 205): -100%
GI50 [10]: 2.45 µM
LC50 [10]: 36.4 µM
TGI [10]: 12.3 µM
GI50 [11]: 8.53 µM
TGI [11]: 20.8 µM
CC50 [11]: 45.6 µM
growth at 0.1 µM (NCI-H322M [12]): 95%
growth at 0.1 µM (MDA-MB-435 [13]): 95%
growth at 100 µM (SNB-75): -50%
growth at 1 µM [14]: 76%
growth at 0.1 µM (ACHN [15]): 94%
growth at 0.01 µM [16]: 78%
growth at 0.1 µM (HT-29): 93%
growth at 0.1 µM [17]: 92%
growth at 100 µM (NCI-H226): -93%
growth at 100 µM (HOP-62 [18]): 100%
growth at 0.1 µM (SNB-19): 96%
growth at 0.1 µM (SF-295): 92%
growth at 100 µM [19]: -100%
growth at 0.1 µM (NCI-H460): 100%
growth at 0.1 µM [20]: 98%
growth at 0.01 µM (MCF7 [21]): 91%
growth at 0.01 µM (RXF 393): 70%
growth at 0.01 µM [22]: 97%
growth at 0.1 µM [23]: 91%
growth at 0.1 µM (K562): 95%
growth at 1 µM (HL-60(TB)): 100%
growth at 100 µM [24]: -87%
growth at 100 µM [25]: -45%
